Test results reported in patent publication US6403788B1, “Non-genotoxic metalloporphyrins as synthetic catalytic scavengers of reactive oxygen species” (Eukarion, Inc., priority 2000, dated 2002).

Legend:
[1] = system: ΦX 174 DNA Plasmid (Form I); experiment: Cleavage of ΦX 174 DNA plasmid (form I), activation with H2O2; format: biochemical, phage ΦX 174; details: for S (single-strand breaks per DNA molecule) / form % I / form % II / form % III: DNA 3.5 nM, H2O2 1 mM
Text: The DNA cleavage activity was quantified in terms of number of single-strand breaks per DNA molecule according to the equation […], Io=% form I (supercoiled DNA) in the DNA control, and I=% form I in the experiment (see Bernadou et al, Biochemistry, 28: 7268-7275, (1989)). This assay is very sensitive and is able to detect very low levels of DNA activity. S values less than S=1.0 are indicative of very low DNA cleavage activity when the compounds are at a concentration of equal to or less than 1000 nM and KHSO5 is present at a concentration of equal to or less than 100 μM.
ΦX 174 DNA digestion conditions for standard experiments were as follows: commercially available DNA was diluted to 50 μg/mL in phosphate buffer (10 mM, pH 7.5). The reaction involved 5 μL of ΦX 174 DNA (50 μg/mL, 74.8 μM in base pairs), 5 μL of 40 mM phosphate buffer, pH 7.5 with 400 mM NaCl, 5 μL of metalloporphyrin in double-distilled water or 5 μL of iron-bleomycin complex in double-distilled water, and 5 μL of KHSO5 or 5 μL of H2O2 or 5 μL of ascorbate in double-distilled water. Preincubation of DNA and metalloporphyrins or iron-bleomycin complex was performed for about 15 min. The digestion time in the presence of KHSO5 was 10 min, of H2O2 was 30 min and of ascorbate was 30 min at 20° C. DNA cleavage was monitored by agarose gel electrophoresis. Reactions with KHSO5 were first quenched by 2 μL of 100 mM Hepes buffer, pH 8. In all cases, reactions were quenched by 5 μL of a stopping reagent. The stopping reagent consisted of 250 mM Hepes buffer, pH 7.4, containing 75% glycerol and 0.05% bromophenol blue. Reaction mixtures were then run in 0.8% agarose slab horizontal gel containing ethidium bromide […], at constant current (25 mA for 15h), in 89 mM Tris-borate buffer and 2.5 mM EDTA pH 8.3. Bands were located by WV light (254 nm), photographed, and quantitated by microdensitometry. The correction coefficient 1.47±0.30 was used for decreased stainability of form I DNA vs form II DNA and form III DNA.

[2] = Superoxide dismutase activity, xanthine-xanthine oxidase / cytochrome C; format: biochemical; details: reciprocal of IC50; xanthine 60 μM, xanthine oxidase 0.009 units/ml, cytochrome C 27.8 μM
Procedure: Superoxide Dismutase Activity was measured by incubating the compound with a superoxide generating system (Xanthine, 60 μM-Xanthine Oxidase, 0.009 units/ml) and a detector molecule (Cytochrome C, 27.8 μM). Upon reacting with a molecule of superoxide, Cytochrome C undergoes a spectrum-shift which can be detected as an increase in absorbance at 550 nm. In this assay procedure, the reactant concentrations were adjusted to give a reaction rate close to 0.1 AU/min. at 2-3 min. after the reaction began. Addition of compounds with Superoxide Dismutase activity reduce the rate of absorbance change. Compounds were assayed at several concentrations (typically at 0, 2, 4, and 8 μM) and the resulting rates were graphed and fitted to a linear regression formula. The linear regression formula was then solved to determine the concentration of compound required to reduce the reaction rate to 50% of the rate without compound present (IC50).

SMILES: CC[NH+](CC)CCNS(=O)(=O)c1c(C)cc(C)c(C2=C3C=CC4=[N+]3[Fe-]35[n]6c2ccc6C(c2c(C)cc(C)c(S(=O)(=O)NCC[NH+](CC)CC)c2C)=C2C=CC(=[N+]23)C(c2c(C)cc(C)c(S(=O)(=O)NCC[NH+](CC)CC)c2C)=c2ccc([n]25)=C4c2c(C)cc(C)c(S(=O)(=O)NCC[NH+](CC)CC)c2C)c1C.[Cl-].[Cl-].[Cl-].[Cl-].[Cl-] [Structural Formula V, meso-tetrakis[3-(N-(2-(N,N-diethylammonio)ethyl)aminosulfonyl)-2,4,6-trimethylphenyl]porphyrinato diaqua-iron (III) pentachloride]
- S (single-strand breaks per DNA molecule) ([1]; compound 10 nM): 0.01 SSBs
- form % I ([1]; compound 10 nM): 94%
- form % II ([1]; compound 10 nM): 6%
- form % III ([1]; compound 10 nM): 0%
- S (single-strand breaks per DNA molecule) ([1]; compound 100 nM): 0 SSBs
- form % I ([1]; compound 100 nM): 95%
- form % II ([1]; compound 100 nM): 5%
- form % III ([1]; compound 100 nM): 0%
- S (single-strand breaks per DNA molecule) ([1]; compound 1 μM): 0.16 SSBs
- form % I ([1]; compound 1 μM): 84%
- form % II ([1]; compound 1 μM): 16%
- form % III ([1]; compound 1 μM): 0%
- DNA cleavage activity in H2O2 medium ([1]; H2O2 medium): does not exhibit significant DNA cleavage activity
- Cyt C SOD 1/(IC50, μM) [2]: 0.067 µM⁻¹
